Biological target: TYK2 (Homo sapiens, UniProt P29597)
Test: TYK2 protein degradation in NOMO-1 cells by immunoblotting
Type: cell-based
Parameters: endogenous in cells
Conditions: NOMO-1 cells
Description: NOMO-1 cells were treated with CPD-155, CPD-157, and CPD-158 at 0.1, 1, 10, 100 and 1000 nM concentrations for 16 hours. […] Data shown that CPD-155, CPD-157, and CPD-158 are very potent at the reduction protein levels of TYK2.
MOLT-4 or NOMO-1 cells were cultured at 37° C. with 5% CO2 in RPMI 1640 Medium supplemented with 10% fetal bovine serum. Cells were authenticated using the short tandem repeat (STR) assays. Mycoplasma test results were negative.
Cultured cells were washed with cold PBS once and lysed in cold RIPA buffer supplemented with protease inhibitors and phosphatase inhibitors (Beyotime Biotechnology). The solutions were then incubated at 4° C. for 30 minutes with gentle agitation to fully lyse cells. Cell lysates were centrifuged at 13,000 rpm for 10 minutes at 4° C. and pellets were discarded. Total protein concentrations in the lysates were determined by BCA assays (Beyotime Biotechnology). Cell lysates were mixed with Laemmli loading buffer to 1× and heated at 99° C. for 5 min. Proteins were resolved on SDS-PAGE and visualized by chemiluminescence. Images were taken by a ChemiDoc MP Imaging system (Bio-Rad). Protein bands were quantitated using the accompanied software provided by Bio-Rad.

TYK2, sequence (P29597 whole entry): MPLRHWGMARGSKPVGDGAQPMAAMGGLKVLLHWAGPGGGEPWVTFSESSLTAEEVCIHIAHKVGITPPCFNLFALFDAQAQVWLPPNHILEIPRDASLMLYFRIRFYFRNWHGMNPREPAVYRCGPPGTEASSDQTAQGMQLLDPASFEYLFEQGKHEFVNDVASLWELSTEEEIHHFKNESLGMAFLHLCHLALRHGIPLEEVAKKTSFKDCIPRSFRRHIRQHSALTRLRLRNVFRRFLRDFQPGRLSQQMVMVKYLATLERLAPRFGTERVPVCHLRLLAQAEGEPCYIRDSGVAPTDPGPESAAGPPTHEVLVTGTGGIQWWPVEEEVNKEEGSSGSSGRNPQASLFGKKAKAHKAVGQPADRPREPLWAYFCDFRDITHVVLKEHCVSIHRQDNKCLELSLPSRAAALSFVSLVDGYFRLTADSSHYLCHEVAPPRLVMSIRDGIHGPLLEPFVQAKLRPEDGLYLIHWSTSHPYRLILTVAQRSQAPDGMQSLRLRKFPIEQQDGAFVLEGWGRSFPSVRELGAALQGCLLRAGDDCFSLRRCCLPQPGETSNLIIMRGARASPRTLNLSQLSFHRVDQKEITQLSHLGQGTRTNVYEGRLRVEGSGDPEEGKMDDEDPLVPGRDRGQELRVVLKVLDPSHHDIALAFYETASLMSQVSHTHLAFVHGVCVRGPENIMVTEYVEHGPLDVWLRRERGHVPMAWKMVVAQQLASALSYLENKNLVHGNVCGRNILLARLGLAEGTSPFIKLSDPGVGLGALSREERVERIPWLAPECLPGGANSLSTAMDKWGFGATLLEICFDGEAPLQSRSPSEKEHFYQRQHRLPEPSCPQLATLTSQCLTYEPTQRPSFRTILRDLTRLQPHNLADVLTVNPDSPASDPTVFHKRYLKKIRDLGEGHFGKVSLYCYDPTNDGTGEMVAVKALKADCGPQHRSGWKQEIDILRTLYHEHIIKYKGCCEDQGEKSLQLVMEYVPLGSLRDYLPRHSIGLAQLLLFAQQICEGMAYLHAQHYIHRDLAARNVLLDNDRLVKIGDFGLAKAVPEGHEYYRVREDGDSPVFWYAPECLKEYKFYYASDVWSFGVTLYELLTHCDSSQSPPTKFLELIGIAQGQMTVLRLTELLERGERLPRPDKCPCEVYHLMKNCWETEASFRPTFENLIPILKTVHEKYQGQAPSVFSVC

Row | Compound | TYK2 Degradation (NOMO-1, 10 nM) | TYK2 Degradation (NOMO-1, 100 nM)
1 | CNC(=O)c1nnc(Nc2ccc(C(=O)NCCCCCC(=O)N[C@H](C(=O)N3C[C@H](O)C[C@H]3C(=O)N[C@@H](C)c3ccc(-c4scnc4C)cc3)C(C)(C)C)cn2)cc1Nc1cccc(-c2ncn(C)n2)c1OC [CPD-141, 6-((5-((6-(((S)-1-((2S,4R)-4-Hydroxy-2-(((S)-1-(4-(4-methylthiazol-5-yl)phenyl)ethyl)carbamoyl)pyrrolidin-1-yl)-3,3-dimethyl-1-oxobutan-2-yl)amino)-6-oxohexyl)carbamoyl)pyridin-2-yl)amino)-4-((2-methoxy-3-(1-methyl-1H-1,2,4-triazol-3-yl)phenyl)amino)-N-methylpyridazine-3-carboxamide] | B (B: <60% TYK2 degradation, and >20% TYK2 degradation) | A (A: ≥60% TYK2 degradation)
2 | CNC(=O)c1nnc(Nc2ccc(C(=O)NCCCC(=O)N[C@H](C(=O)N3C[C@H](O)C[C@H]3C(=O)N[C@@H](C)c3ccc(-c4scnc4C)cc3)C(C)(C)C)cn2)cc1Nc1cccc(-c2ncn(C)n2)c1OC [CPD-139, 6-((5-((4-(((S)-1-((2S,4R)-4-Hydroxy-2-(((S)-1-(4-(4-methylthiazol-5-yl)phenyl)ethyl)carbamoyl)pyrrolidin-1-yl)-3,3-dimethyl-1-oxobutan-2-yl)amino)-4-oxobutyl)carbamoyl)pyridin-2-yl)amino)-4-((2-methoxy-3-(1-methyl-1H-1,2,4-triazol-3-yl)phenyl)amino)-N-methylpyridazine-3-carboxamide] | C (C: ≤20% TYK2 degradation) | A (A: ≥60% TYK2 degradation)
3 | CNC(=O)c1nnc(Nc2ccc(N3CCN(C4CCN(C(=O)CCCCCCCC(=O)N[C@H](C(=O)N5C[C@H](O)C[C@H]5C(=O)N[C@@H](C)c5ccc(-c6scnc6C)cc5)C(C)(C)C)CC4)CC3)cn2)cc1Nc1cccc(-c2ncn(C)n2)c1OC [CPD-150, 6-((5-(4-(1-(9-(((S)-1-((2S,4R)-4-hydroxy-2-(((S)-1-(4-(4-methylthiazol-5-yl)phenyl)ethyl)carbamoyl)pyrrolidin-1-yl)-3,3-dimethyl-1-oxobutan-2-yl)amino)-9-oxononanoyl)piperidin-4-yl)piperazin-1-yl)pyridin-2-yl)amino)-4-((2-methoxy-3-(1-methyl-1H-1,2,4-triazol-3-yl)phenyl)amino)-N-methylpyridazine-3-carboxamide] | A (A: ≥60% TYK2 degradation) | A (A: ≥60% TYK2 degradation)
4 | CNC(=O)c1nnc(Nc2ccc(C(=O)NCCNc3cccc4c3C(=O)N(C3CCC(=O)NC3=O)C4=O)cn2)cc1Nc1cccc(-c2ncn(C)n2)c1OC (stereo not shown) [CPD-152, 6-((5-((2-((2-(2,6-Dioxopiperidin-3-yl)-1,3-dioxoisoindolin-4-yl)amino)ethyl)carbamoyl)pyridin-2-yl)amino)-4-((2-methoxy-3-(1-methyl-1H-1,2,4-triazol-3-yl)phenyl)amino)-N-methylpyridazine-3-carboxamide] | – | A (A: ≥60% TYK2 degradation)
5 | CNC(=O)c1nnc(Nc2ccc(C(=O)NCCOCCNc3ccc4c(c3)C(=O)N(C3CCC(=O)NC3=O)C4=O)cn2)cc1Nc1cccc(-c2ncn(C)n2)c1OC (stereo not shown) [CPD-168, 6-((5-((2-(2-((2-(2,6-dioxopiperidin-3-yl)-1,3-dioxoisoindolin-5-yl)amino)ethoxy)ethyl)carbamoyl)pyridin-2-yl)amino)-4-((2-methoxy-3-(1-methyl-1H-1,2,4-triazol-3-yl)phenyl)amino)-N-methylpyridazine-3-carboxamide] | – | C (C: ≤20% TYK2 degradation)
6 | CNC(=O)c1nnc(Nc2ccc(C#CC3CN(C(=O)CCCCCCC(=O)N[C@H](C(=O)N4C[C@H](O)C[C@H]4C(=O)N[C@@H](C)c4ccc(-c5scnc5C)cc4)C(C)(C)C)C3)cn2)cc1Nc1cccc(-c2ncn(C)n2)c1OC [CPD-125, 6-((5-((1-(8-(((S)-1-((2S,4R)-4-hydroxy-2-(((S)-1-(4-(4-methylthiazol-5-yl)phenyl)ethyl)carbamoyl)pyrrolidin-1-yl)-3,3-dimethyl-1-oxobutan-2-yl)amino)-8-oxooctanoyl)azetidin-3-yl)ethynyl)pyridin-2-yl)amino)-4-((2-methoxy-3-(1-methyl-H-1,2,4-triazol-3-yl)phenyl)amino)-N-methylpyridazine-3-carboxamide] | A (A: ≥60% TYK2 degradation) | A (A: ≥60% TYK2 degradation)
7 | CNC(=O)c1nnc(Nc2ccc(C(=O)NCCCCCCCNc3ccc4c(c3)C(=O)N(C3CCC(=O)NC3=O)C4=O)cn2)cc1Nc1cccc(-c2ncn(C)n2)c1OC (stereo not shown) [CPD-166, 6-((5-((7-((2-(2,6-dioxopiperidin-3-yl)-1,3-dioxoisoindolin-5-yl)amino)heptyl)carbamoyl)pyridin-2-yl)amino)-4-((2-methoxy-3-(1-methyl-1H-1,2,4-triazol-3-yl)phenyl)amino)-N-methylpyridazine-3-carboxamide] | – | C (C: ≤20% TYK2 degradation)
8 | CNC(=O)c1nnc(Nc2ccc(C#CC3CCN(C(=O)CCCCC(=O)N[C@H](C(=O)N4C[C@H](O)C[C@H]4C(=O)N[C@@H](C)c4ccc(-c5scnc5C)cc4)C(C)(C)C)CC3)cn2)cc1Nc1cccc(-c2ncn(C)n2)c1OC [CPD-117, 6-((5-((1-(6-(((S)-1-((2S,4R)-4-Hydroxy-2-(((S)-1-(4-(4-methylthiazol-5-yl)phenyl)ethyl)carbamoyl)pyrrolidin-1-yl)-3,3-dimethyl-1-oxobutan-2-yl)amino)-6-oxohexanoyl)piperidin-4-yl)ethynyl)pyridin-2-yl)amino)-4-((2-methoxy-3-(1-methyl-1H-1,2,4-triazol-3-yl)phenyl)amino)-N-methylpyridazine-3-carboxamide] | C (C: ≤20% TYK2 degradation) | A (A: ≥60% TYK2 degradation)
9 | CNC(=O)c1nnc(Nc2ccc(C(=O)NCCCCC(=O)N[C@H](C(=O)N3C[C@H](O)C[C@H]3C(=O)N[C@@H](C)c3ccc(-c4scnc4C)cc3)C(C)(C)C)cn2)cc1Nc1cccc(-c2ncn(C)n2)c1OC [CPD-140, 6-((5-((5-(((S)-1-((2S,4R)-4-Hydroxy-2-(((S)-1-(4-(4-methylthiazol-5-yl)phenyl)ethyl)carbamoyl)pyrrolidin-1-yl)-3,3-dimethyl-1-oxobutan-2-yl)amino)-5-oxopentyl)carbamoyl)pyridin-2-yl)amino)-4-((2-methoxy-3-(1-methyl-1H-1,2,4-triazol-3-yl)phenyl)amino)-N-methylpyridazine-3-carboxamide] | C (C: ≤20% TYK2 degradation) | A (A: ≥60% TYK2 degradation)
10 | CNC(=O)c1nnc(Nc2ccc(CNC(=O)CCCCCCCCC(=O)N[C@H](C(=O)N3C[C@H](O)C[C@H]3C(=O)N[C@@H](C)c3ccc(-c4scnc4C)cc3)C(C)(C)C)cn2)cc1Nc1cccc(-c2ncn(C)n2)c1OC [CPD-133, N1-((S)-1-((2S,4R)-4-hydroxy-2-(((S)-1-(4-(4-methylthiazol-5-yl)phenyl)ethyl)carbamoyl)pyrrolidin-1-yl)-3,3-dimethyl-1-oxobutan-2-yl)-N10-((6-((5-((2-methoxy-3-(1-methyl-1H-1,2,4-triazol-3-yl)phenyl)amino)-6-(methylcarbamoyl)pyridazin-3-yl)amino)pyridin-3-yl)methyl)decanediamide] | A (A: ≥60% TYK2 degradation) | A (A: ≥60% TYK2 degradation)
11 | CNC(=O)c1nnc(Nc2ccc(CNC(=O)CCCCCC(=O)N[C@H](C(=O)N3C[C@H](O)C[C@H]3C(=O)N[C@@H](C)c3ccc(-c4scnc4C)cc3)C(C)(C)C)cn2)cc1Nc1cccc(-c2ncn(C)n2)c1OC [CPD-130, N1-((S)-1-((2S,4R)-4-Hydroxy-2-(((S)-1-(4-(4-methylthiazol-5-yl)phenyl)ethyl)carbamoyl)pyrrolidin-1-yl)-3,3-dimethyl-1-oxobutan-2-yl)-N7-((6-((5-((2-methoxy-3-(1-methyl-1H-1,2,4-triazol-3-yl)phenyl)amino)-6-(methylcarbamoyl)pyridazin-3-yl)amino)pyridin-3-yl)methyl)heptanediamide] | – | B (B: <60% TYK2 degradation, and >20% TYK2 degradation)
12 | CNC(=O)c1nnc(Nc2ccc(C(=O)NCCC(=O)N[C@H](C(=O)N3C[C@H](O)C[C@H]3C(=O)N[C@@H](C)c3ccc(-c4scnc4C)cc3)C(C)(C)C)cn2)cc1Nc1cccc(-c2ncn(C)n2)c1OC [CPD-138, 6-((5-((3-(((S)-1-((2S,4R)-4-Hydroxy-2-(((S)-1-(4-(4-methylthiazol-5-yl)phenyl)ethyl)carbamoyl)pyrrolidin-1-yl)-3,3-dimethyl-1-oxobutan-2-yl)amino)-3-oxopropyl)carbamoyl)pyridin-2-yl)amino)-4-((2-methoxy-3-(1-methyl-1H-1,2,4-triazol-3-yl)phenyl)amino)-N-methylpyridazine-3-carboxamide] | – | C (C: ≤20% TYK2 degradation)
